Results from patent US7279317B2, “Modulation of COP9 signalsome isopeptidase activity” (California Institute of Technology, priority 2001, dated 2007).

Columns and labels:
CSN = target: T1, CSN (Schizosaccharomyces pombe, UniProt O94454); experiment: Nedd8 conjugate cleavage (deneddylation of Pcu1/Cul1) by CSN in S. pombe cell extracts, immunoblot; assay type: biochemical; conditions: 30 min at 30° C.; for inhibition of Nedd8 conjugate cleavage activity of CSN (Nedd8 deconjugation from Cul1): 1 mM chelator
T1 construct: addition (+) of wild type lysate (which contained active CSN); endogenous in cells; host or cells: wild type S. pombe cell lysate
Experimental: On the basis of this analysis, it was hypothesized that CSN represents the founding member of a novel class of metalloproteases. To test this hypothesis, the effect of a divalent cation chelator on the Nedd8 conjugate cleavage activity associated with CSN was examined. Mutant csn5Δ S. pombe cell extract that contained neddylated Pcu1 was incubated either alone (−) or following addition (+) of wild type lysate (which contained active CSN) supplemented with either methanol vehicle (MeOH), 1 mM 1,10-phenanthroline (O-PT), or 1 mM, 10 mM, or 20 mM EDTA.
Reactions were incubated 30 min at 30° C. and terminated by addition of SDS-PAGE sample buffer, fractionated by SDS-PAGE, transferred to nitrocellulose, and immunoblotted with antibodies directed against S. pombe Cul1. Filter-bound antibodies were decorated with goat-anti-rabbit antibody conjugated to horse radish peroxidase and visualized with ECL reagents (Lyapina et al., supra, 2001).
The status of Nedd8 conjugation to Cul1 was determined by the mobility of Cul1 on the SDS-polyacrylamide gel. Nedd8-conjugated Cul1 migrated more slowly than unmodified Cul.

26S proteasome [1] = conditions: prior work; cited from earlier work
26S proteasome [2] = target: T2, 26S proteasome (Saccharomyces cerevisiae, UniProt P25043+P30656+P38624+P43588); experiment: Deubiquitination and degradation of multiubiquitinated Sic1 by purified 26S proteasome, immunoblot; assay type: biochemical; conditions: 2.5 μM; in the presence of epoxomicin
T2 construct: made in house; host or cells: Saccharomyces cerevisiae

T1 sequence (O94454 whole entry): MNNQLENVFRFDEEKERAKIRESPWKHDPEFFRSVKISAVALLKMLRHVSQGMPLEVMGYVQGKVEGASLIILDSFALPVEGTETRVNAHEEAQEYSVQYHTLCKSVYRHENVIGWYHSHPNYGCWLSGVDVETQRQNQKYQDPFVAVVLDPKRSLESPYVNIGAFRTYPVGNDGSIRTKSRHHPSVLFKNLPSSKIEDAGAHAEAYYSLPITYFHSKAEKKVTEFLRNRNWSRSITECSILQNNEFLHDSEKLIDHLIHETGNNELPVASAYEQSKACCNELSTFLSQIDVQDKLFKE
T1 sequence (O94308 whole entry partner): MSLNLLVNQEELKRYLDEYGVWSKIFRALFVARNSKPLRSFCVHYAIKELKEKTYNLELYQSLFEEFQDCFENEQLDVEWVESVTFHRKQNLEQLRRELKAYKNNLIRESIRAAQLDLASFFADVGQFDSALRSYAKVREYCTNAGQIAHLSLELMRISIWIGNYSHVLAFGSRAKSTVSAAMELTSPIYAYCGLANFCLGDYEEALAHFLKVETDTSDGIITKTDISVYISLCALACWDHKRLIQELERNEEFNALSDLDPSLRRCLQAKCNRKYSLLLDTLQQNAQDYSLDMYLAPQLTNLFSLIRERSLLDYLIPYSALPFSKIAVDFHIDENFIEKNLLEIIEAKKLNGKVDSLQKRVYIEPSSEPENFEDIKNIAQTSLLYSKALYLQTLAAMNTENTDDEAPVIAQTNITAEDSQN
T1 sequence (Q9HFR0 whole entry partner): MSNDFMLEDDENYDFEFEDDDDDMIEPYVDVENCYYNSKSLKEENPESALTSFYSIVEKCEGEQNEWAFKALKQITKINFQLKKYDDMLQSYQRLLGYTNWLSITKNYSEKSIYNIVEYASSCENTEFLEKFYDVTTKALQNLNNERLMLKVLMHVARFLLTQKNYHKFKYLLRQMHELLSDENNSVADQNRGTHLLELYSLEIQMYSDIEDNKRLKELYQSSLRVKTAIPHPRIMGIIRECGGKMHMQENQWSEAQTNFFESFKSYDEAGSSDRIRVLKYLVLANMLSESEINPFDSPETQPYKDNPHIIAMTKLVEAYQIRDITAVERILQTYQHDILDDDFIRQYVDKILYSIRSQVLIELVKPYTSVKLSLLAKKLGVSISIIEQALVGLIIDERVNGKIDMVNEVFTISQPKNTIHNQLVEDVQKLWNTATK
T1 sequence (O13895 whole entry partner): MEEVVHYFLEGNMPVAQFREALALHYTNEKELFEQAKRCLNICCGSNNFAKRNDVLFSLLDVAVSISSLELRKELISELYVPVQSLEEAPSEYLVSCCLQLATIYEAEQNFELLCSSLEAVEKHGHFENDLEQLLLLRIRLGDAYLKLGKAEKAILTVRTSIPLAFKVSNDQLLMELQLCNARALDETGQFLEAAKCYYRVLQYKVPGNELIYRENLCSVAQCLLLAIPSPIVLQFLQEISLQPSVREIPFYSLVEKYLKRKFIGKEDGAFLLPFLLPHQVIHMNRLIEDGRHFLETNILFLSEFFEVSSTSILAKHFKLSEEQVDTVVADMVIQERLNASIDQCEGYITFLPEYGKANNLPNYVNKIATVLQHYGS
T1 sequence (Q8WZK4 whole entry partner): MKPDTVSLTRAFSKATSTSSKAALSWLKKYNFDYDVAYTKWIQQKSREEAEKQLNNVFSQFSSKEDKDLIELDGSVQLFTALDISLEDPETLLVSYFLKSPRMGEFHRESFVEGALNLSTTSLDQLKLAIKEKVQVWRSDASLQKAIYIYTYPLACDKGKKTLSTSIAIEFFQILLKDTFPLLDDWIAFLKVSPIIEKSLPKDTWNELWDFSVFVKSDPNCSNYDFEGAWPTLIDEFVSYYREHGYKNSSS
T1 sequence (Q9UUJ7 whole entry partner): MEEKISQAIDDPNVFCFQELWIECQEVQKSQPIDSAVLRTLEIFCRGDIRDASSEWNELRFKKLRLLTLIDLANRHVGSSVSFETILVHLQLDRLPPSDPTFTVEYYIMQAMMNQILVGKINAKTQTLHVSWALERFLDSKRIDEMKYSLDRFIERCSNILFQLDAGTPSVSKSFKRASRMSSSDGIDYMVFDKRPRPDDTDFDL

Compound | inhibition of Nedd8 conjugate cleavage activity of CSN (Nedd8 deconjugation from Cul1) (CSN) | sensitivity of 26S proteasome-associated isopeptidase activity (26S proteasome [1]) | inhibition of Nedd8 deconjugation from Cul1 by CSN (CSN; 10 mM) | inhibition of Nedd8 deconjugation from Cul1 by CSN (CSN; 20 mM) | sensitivity of Sic1 deubiquitination by 26S proteasome to the inhibitor (26S proteasome [2])
c1cnc2c(c1)ccc1cccnc12 [1,10-phenanthroline] | completely inhibited | sensitive | – | – | –
O=C(O)CN(CCN(CC(=O)O)CC(=O)O)CC(=O)O [EDTA] | No inhibition | – | less than 50% | almost complete inhibition | –
ubiquitin vinyl sulfone | – | – | – | – | not sensitive
